Test results from patent publication US12478624B2, “Heterocyclic derivatives, pharmaceutical compositions and their use in the treatment or amelioration of cancer” (Tolremo Therapeutics AG, priority 2019, dated 2025).

Tests used:
OPM-2 = experiment: Assay 2: multiple myeloma cellular efficacy, PrestoBlue cell proliferation/survival; type: cell-based; settings: Homo sapiens, 96 h, OPM-2 cells, 4 days
Summary of the method: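 Cells seeded at 10000/well and exposed to a compound dose range or vehicle for 4 days, then stained with PrestoBlue for 2 h at 37 °C. Fluorescence was background-subtracted and normalized to vehicle; EC50 came from a four-parameter variable-slope fit against log concentration.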

BRDT(1) = molecular target: T1, BRDT(1) (Homo sapiens, UniProt Q58F21); experiment: BromoKdMAX (BROMOscan, DiscoverX); type: binding
T1 construct: T7 phage strains displaying bromodomains were grown in parallel; purchased DiscoverX; host or cells: T7 phage in an E. coli host derived from the BL21 strain
Procedure: (§1) A BromoKdMAX was performed at DiscoverX.
(§2) BROMOscan™ is a novel industry leading platform for identifying small molecule bromodomain inhibitors. Based on proven KINOMEscan™ technology, BROMOscan™ employs a proprietary ligand binding site-directed competition assay to quantitatively measure interactions between test compounds and bromodomains. This robust and reliable assay panel is suitable for high throughput screening and delivers quantitative ligand binding data to facilitate the identification and optimization of potent and selective small molecule bromodomain inhibitors.
(§3) For the Bromodomain assays, T7 phage strains displaying bromodomains were grown in parallel in 24-well blocks in an E. coli host derived from the BL21 strain. E. coli were grown to log-phase and infected with T7 phage from a frozen stock (multiplicity of infection=0.4) and incubated with shaking at 32° C. until lysis (90-150 minutes). The lysates were centrifuged (5,000×g) and filtered (0.2 μm) to remove cell debris. […] The liganded beads were blocked with excess biotin and washed with blocking buffer (SeaBlock (Pierce), 1% BSA, 0.05% Tween 20, 1 mM DTT) to remove unbound ligand and to reduce non-specific phage binding. […] Test compounds were prepared as 1000× stocks in 100% DMSO. Kds were determined using an 11-point 3-fold compound dilution series with one DMSO control point. […] The compounds were then diluted directly into the assays such that the final concentration of DMSO was 0.09%. All reactions performed in polypropylene 384-well plates. Each was a final volume of 0.02 ml. […] The bromodomain concentration in the eluates was measured by qPCR.

CECR2 = molecular target: T2, CECR2 (Homo sapiens, UniProt Q9BXF3); experiment: BromoKdMAX (BROMOscan, DiscoverX); type: binding
T2 construct: T7 phage strains displaying bromodomains were grown in parallel; purchased DiscoverX; host or cells: T7 phage grown in E. coli host derived from BL21
Procedure: as §1, §2, §3

SMARCA4 = molecular target: T3, SMARCA4 (Homo sapiens, UniProt P51532); experiment: BromoKdMAX (BROMOscan, DiscoverX); type: binding
T3 construct: T7 phage strains displaying bromodomains were grown in parallel; purchased DiscoverX; host or cells: T7 phage grown in E. coli host derived from BL21
Procedure: as §1, §2, §3

ATAD2A = molecular target: T4, ATAD2A (Homo sapiens, UniProt Q6PL18); experiment: BromoKdMAX (BROMOscan, DiscoverX); type: binding
T4 construct: T7 phage strains displaying bromodomains were grown in parallel; purchased DiscoverX; host or cells: T7 phage in an E. coli host derived from the BL21 strain
Procedure: as §1, §2, §3

BRPF3 = molecular target: T5, BRPF3 (Homo sapiens, UniProt Q9ULD4); experiment: BromoKdMAX (BROMOscan, DiscoverX); type: binding
T5 construct: T7 phage strains displaying bromodomains were grown in parallel; purchased DiscoverX; host or cells: T7 phage in an E. coli host derived from the BL21 strain
Procedure: as §1, §2, §3

WDR9(2) = molecular target: T6, WDR9(2) (Homo sapiens, UniProt Q9NSI6); experiment: BromoKdMAX (BROMOscan, DiscoverX); type: binding; settings: WDR9(2) (BRWD1)
T6 construct: T7 phage strains displaying bromodomains were grown in parallel; purchased DiscoverX; host or cells: T7 phage grown in E. coli host derived from BL21
Procedure: as §1, §2, §3

BRD3(1) = molecular target: T7, BRD3(1) (Homo sapiens, UniProt Q15059); experiment: BromoKdMAX (BROMOscan, DiscoverX); type: binding
T7 construct: T7 phage strains displaying bromodomains were grown in parallel; purchased DiscoverX; host or cells: T7 phage in an E. coli host derived from the BL21 strain
Procedure: as §1, §2, §3

PCAF = molecular target: T8, PCAF (Homo sapiens, UniProt Q92831); experiment: BromoKdMAX (BROMOscan, DiscoverX); type: binding; settings: PCAF (KAT2B)
T8 construct: T7 phage strains displaying bromodomains were grown in parallel; purchased DiscoverX; host or cells: T7 phage grown in E. coli host derived from BL21
Procedure: as §1, §2, §3

TRIM24(PHD, Bromo.) = molecular target: T9, TRIM24(PHD, Bromo.) (Homo sapiens, UniProt O15164); experiment: BromoKdMAX (BROMOscan, DiscoverX); type: binding
T9 construct: TRIM24(PHD, Bromo.); purchased DiscoverX; host or cells: T7 phage grown in E. coli host derived from BL21
Procedure: as §1, §2, §3

BRD3(2) = molecular target: T10, BRD3(2) (Homo sapiens, UniProt Q15059); experiment: BromoKdMAX (BROMOscan, DiscoverX); type: binding
T10 construct: T7 phage strains displaying bromodomains were grown in parallel; purchased DiscoverX; host or cells: T7 phage in an E. coli host derived from the BL21 strain
Procedure: as §1, §2, §3

BRD8(1) = molecular target: T11, BRD8(1) (Homo sapiens, UniProt Q9H0E9); experiment: BromoKdMAX (BROMOscan, DiscoverX); type: binding
T11 construct: T7 phage strains displaying bromodomains were grown in parallel; purchased DiscoverX; host or cells: T7 phage in an E. coli host derived from the BL21 strain
Procedure: as §1, §2, §3

PBRM1(2) = molecular target: T12, PBRM1(2) (Homo sapiens, UniProt Q86U86); experiment: BromoKdMAX (BROMOscan, DiscoverX); type: binding
T12 construct: T7 phage strains displaying bromodomains were grown in parallel; purchased DiscoverX; host or cells: T7 phage grown in E. coli host derived from BL21
Procedure: as §1, §2, §3

SMARCA2 = molecular target: T13, SMARCA2 (Homo sapiens, UniProt P51531); experiment: BromoKdMAX (BROMOscan, DiscoverX); type: binding
T13 construct: T7 phage strains displaying bromodomains were grown in parallel; purchased DiscoverX; host or cells: T7 phage grown in E. coli host derived from BL21
Procedure: as §1, §2, §3

BRD1 = molecular target: T14, BRD1 (Homo sapiens, UniProt O95696); experiment: BromoKdMAX (BROMOscan, DiscoverX); type: binding
T14 construct: T7 phage strains displaying bromodomains were grown in parallel; purchased DiscoverX; host or cells: T7 phage in an E. coli host derived from the BL21 strain
Procedure: as §1, §2, §3

TAF1(2) = molecular target: T15, TAF1(2) (Homo sapiens, UniProt P21675); experiment: BromoKdMAX (BROMOscan, DiscoverX); type: binding
T15 construct: T7 phage strains displaying bromodomains were grown in parallel; purchased DiscoverX; host or cells: T7 phage grown in E. coli host derived from BL21
Procedure: as §1, §2, §3

BRD9 = molecular target: T16, BRD9 (Homo sapiens, UniProt Q9H8M2); experiment: BromoKdMAX (BROMOscan, DiscoverX); type: binding
T16 construct: T7 phage strains displaying bromodomains were grown in parallel; purchased DiscoverX; host or cells: T7 phage in an E. coli host derived from the BL21 strain
Procedure: as §1, §2, §3

BRPF1 = molecular target: T17, BRPF1 (Homo sapiens, UniProt P55201); experiment: BromoKdMAX (BROMOscan, DiscoverX); type: binding
T17 construct: T7 phage strains displaying bromodomains were grown in parallel; purchased DiscoverX; host or cells: T7 phage in an E. coli host derived from the BL21 strain
Procedure: as §1, §2, §3

BRD8(2) = molecular target: T18, BRD8(2) (Homo sapiens, UniProt Q9H0E9); experiment: BromoKdMAX (BROMOscan, DiscoverX); type: binding
T18 construct: T7 phage strains displaying bromodomains were grown in parallel; purchased DiscoverX; host or cells: T7 phage in an E. coli host derived from the BL21 strain
Procedure: as §1, §2, §3

TRIM24(Bromo.) = molecular target: T19, TRIM24(Bromo.) (Homo sapiens, UniProt O15164); experiment: BromoKdMAX (BROMOscan, DiscoverX); type: binding
T19 construct: T7 phage strains displaying bromodomains were grown in parallel; purchased DiscoverX; host or cells: T7 phage grown in E. coli host derived from BL21
Procedure: as §1, §2, §3

TAF1L(2) = molecular target: T20, TAF1L(2) (Homo sapiens, UniProt Q8IZX4); experiment: BromoKdMAX (BROMOscan, DiscoverX); type: binding
T20 construct: T7 phage strains displaying bromodomains were grown in parallel; purchased DiscoverX; host or cells: T7 phage grown in E. coli host derived from BL21
Procedure: as §1, §2, §3

BRDT(2) = molecular target: T21, BRDT(2) (Homo sapiens, UniProt Q58F21); experiment: BromoKdMAX (BROMOscan, DiscoverX); type: binding
T21 construct: T7 phage strains displaying bromodomains were grown in parallel; purchased DiscoverX; host or cells: T7 phage in an E. coli host derived from the BL21 strain
Procedure: as §1, §2, §3

BRDT(1, 2) = molecular target: T22, BRDT(1, 2) (Homo sapiens, UniProt Q58F21); experiment: BromoKdMAX (BROMOscan, DiscoverX); type: binding
T22 construct: T7 phage strains displaying bromodomains were grown in parallel; purchased DiscoverX; host or cells: T7 phage in an E. coli host derived from the BL21 strain
Procedure: as §1, §2, §3

BRD3(1, 2) = molecular target: T23, BRD3(1, 2) (Homo sapiens, UniProt Q15059); experiment: BromoKdMAX (BROMOscan, DiscoverX); type: binding
T23 construct: T7 phage strains displaying bromodomains were grown in parallel; purchased DiscoverX; host or cells: T7 phage in an E. coli host derived from the BL21 strain
Procedure: as §1, §2, §3

BRD7 = molecular target: T24, BRD7 (Homo sapiens, UniProt Q9NPI1); experiment: BromoKdMAX (BROMOscan, DiscoverX); type: binding
T24 construct: T7 phage strains displaying bromodomains were grown in parallel; purchased DiscoverX; host or cells: T7 phage in an E. coli host derived from the BL21 strain
Procedure: as §1, §2, §3

FALZ = molecular target: T25, FALZ (Homo sapiens, UniProt Q12830); experiment: BromoKdMAX (BROMOscan, DiscoverX); type: binding; settings: FALZ (BPTF)
T25 construct: T7 phage strains displaying bromodomains were grown in parallel; purchased DiscoverX; host or cells: T7 phage grown in E. coli host derived from BL21
Procedure: as §1, §2, §3

PBRM1(5) = molecular target: T26, PBRM1(5) (Homo sapiens, UniProt Q86U86); experiment: BromoKdMAX (BROMOscan, DiscoverX); type: binding
T26 construct: T7 phage strains displaying bromodomains were grown in parallel; purchased DiscoverX; host or cells: T7 phage grown in E. coli host derived from BL21
Procedure: as §1, §2, §3

BAZ2A = molecular target: T27, BAZ2A (Homo sapiens, UniProt Q9UIF9); experiment: BromoKdMAX (BROMOscan, DiscoverX); type: binding
T27 construct: T7 phage strains displaying bromodomains were grown in parallel; purchased DiscoverX; host or cells: T7 phage in an E. coli host derived from the BL21 strain
Procedure: as §1, §2, §3

BAZ2B = molecular target: T28, BAZ2B (Homo sapiens, UniProt Q9UIF8); experiment: BromoKdMAX (BROMOscan, DiscoverX); type: binding
T28 construct: T7 phage strains displaying bromodomains were grown in parallel; purchased DiscoverX; host or cells: T7 phage in an E. coli host derived from the BL21 strain
Procedure: as §1, §2, §3

GCN5L2 = molecular target: T29, GCN5L2 (Homo sapiens, UniProt Q92830); experiment: BromoKdMAX (BROMOscan, DiscoverX); type: binding; settings: GCN5L2 (KAT2A)
T29 construct: T7 phage strains displaying bromodomains were grown in parallel; purchased DiscoverX; host or cells: T7 phage grown in E. coli host derived from BL21
Procedure: as §1, §2, §3

ATAD2B = molecular target: T30, ATAD2B (Homo sapiens, UniProt Q9ULI0); experiment: BromoKdMAX (BROMOscan, DiscoverX); type: binding
T30 construct: T7 phage strains displaying bromodomains were grown in parallel; purchased DiscoverX; host or cells: T7 phage in an E. coli host derived from the BL21 strain
Procedure: as §1, §2, §3

T28 sequence (Q9UIF8 2060-2164 limits assumed): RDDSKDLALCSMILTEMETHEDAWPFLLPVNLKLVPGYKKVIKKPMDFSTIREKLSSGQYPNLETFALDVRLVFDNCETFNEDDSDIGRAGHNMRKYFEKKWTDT
T27 sequence (Q9UIF9 1793-1897 limits assumed): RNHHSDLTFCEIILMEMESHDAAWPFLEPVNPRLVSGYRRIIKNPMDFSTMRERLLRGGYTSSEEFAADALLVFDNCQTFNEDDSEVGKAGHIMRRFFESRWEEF
T23 sequence (Q15059 24-416 limits assumed): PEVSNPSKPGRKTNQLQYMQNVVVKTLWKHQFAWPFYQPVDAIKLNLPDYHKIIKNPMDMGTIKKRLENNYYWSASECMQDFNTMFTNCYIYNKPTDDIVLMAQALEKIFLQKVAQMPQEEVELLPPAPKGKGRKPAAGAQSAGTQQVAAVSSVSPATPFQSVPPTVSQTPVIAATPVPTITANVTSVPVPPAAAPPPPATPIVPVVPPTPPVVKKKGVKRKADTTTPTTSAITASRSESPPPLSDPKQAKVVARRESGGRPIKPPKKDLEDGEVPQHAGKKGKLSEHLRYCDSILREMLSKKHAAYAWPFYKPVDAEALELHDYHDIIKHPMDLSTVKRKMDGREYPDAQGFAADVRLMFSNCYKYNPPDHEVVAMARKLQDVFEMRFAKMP
T18 sequence (Q9H0E9 1099-1207 limits assumed): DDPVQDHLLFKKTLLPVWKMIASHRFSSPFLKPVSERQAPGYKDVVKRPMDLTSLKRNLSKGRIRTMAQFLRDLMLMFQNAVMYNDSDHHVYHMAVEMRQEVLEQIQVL
T14 sequence (O95696 562-666 limits assumed): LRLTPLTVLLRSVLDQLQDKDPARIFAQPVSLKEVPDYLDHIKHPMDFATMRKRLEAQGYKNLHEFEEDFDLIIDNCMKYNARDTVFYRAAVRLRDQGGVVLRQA
T20 sequence (Q8IZX4 1517-1626 limits assumed): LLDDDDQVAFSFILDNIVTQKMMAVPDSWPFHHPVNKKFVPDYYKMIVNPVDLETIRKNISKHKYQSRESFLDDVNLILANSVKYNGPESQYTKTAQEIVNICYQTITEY
T4 sequence (Q6PL18 980-1092 limits assumed): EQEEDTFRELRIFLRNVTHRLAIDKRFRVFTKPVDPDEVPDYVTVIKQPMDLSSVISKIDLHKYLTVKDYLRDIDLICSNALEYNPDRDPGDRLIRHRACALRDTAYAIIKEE
T9 sequence (O15164 824-1006 limits assumed): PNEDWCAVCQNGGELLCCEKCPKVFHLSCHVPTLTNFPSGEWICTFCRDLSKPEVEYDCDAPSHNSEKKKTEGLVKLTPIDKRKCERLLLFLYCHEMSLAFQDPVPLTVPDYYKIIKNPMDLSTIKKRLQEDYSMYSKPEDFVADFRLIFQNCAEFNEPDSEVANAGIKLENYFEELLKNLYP
T13 sequence (P51531 1378-1506 limits assumed): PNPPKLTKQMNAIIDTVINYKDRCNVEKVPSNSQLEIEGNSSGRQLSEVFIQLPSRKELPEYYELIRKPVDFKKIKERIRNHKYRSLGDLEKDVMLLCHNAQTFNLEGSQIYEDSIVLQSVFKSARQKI
T7 sequence (Q15059 34-140 limits assumed): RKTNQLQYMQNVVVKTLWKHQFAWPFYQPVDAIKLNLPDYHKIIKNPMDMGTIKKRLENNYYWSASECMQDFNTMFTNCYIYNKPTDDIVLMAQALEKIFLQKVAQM
T29 sequence (Q92830 728-832 limits assumed): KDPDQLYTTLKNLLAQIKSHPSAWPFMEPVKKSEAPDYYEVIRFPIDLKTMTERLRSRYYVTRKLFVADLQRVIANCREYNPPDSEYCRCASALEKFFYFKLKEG
T24 sequence (Q9NPI1 131-235 limits assumed): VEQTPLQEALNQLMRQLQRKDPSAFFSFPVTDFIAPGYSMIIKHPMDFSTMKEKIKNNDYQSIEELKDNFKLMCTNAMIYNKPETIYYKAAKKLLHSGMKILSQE
T26 sequence (Q86U86 653-763 limits assumed): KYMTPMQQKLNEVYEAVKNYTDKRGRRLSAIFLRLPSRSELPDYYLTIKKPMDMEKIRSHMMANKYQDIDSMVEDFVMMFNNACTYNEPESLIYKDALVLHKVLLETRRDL
T11 sequence (Q9H0E9 706-811 limits assumed): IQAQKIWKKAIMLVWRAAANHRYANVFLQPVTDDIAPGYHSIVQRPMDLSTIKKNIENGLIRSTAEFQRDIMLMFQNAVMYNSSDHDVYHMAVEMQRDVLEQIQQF
T8 sequence (Q92831 723-827 limits assumed): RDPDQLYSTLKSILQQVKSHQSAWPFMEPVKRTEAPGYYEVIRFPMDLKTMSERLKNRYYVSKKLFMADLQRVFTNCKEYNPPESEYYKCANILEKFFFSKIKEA
T2 sequence (Q9BXF3 434-538 limits assumed): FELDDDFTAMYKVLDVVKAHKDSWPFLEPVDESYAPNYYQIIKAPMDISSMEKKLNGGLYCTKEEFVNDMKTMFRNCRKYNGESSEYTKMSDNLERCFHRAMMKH
T5 sequence (Q9ULD4 589-693 limits assumed): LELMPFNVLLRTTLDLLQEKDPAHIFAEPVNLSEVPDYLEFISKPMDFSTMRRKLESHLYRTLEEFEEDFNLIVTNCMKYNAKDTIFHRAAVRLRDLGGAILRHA
T12 sequence (Q86U86 177-287 limits assumed): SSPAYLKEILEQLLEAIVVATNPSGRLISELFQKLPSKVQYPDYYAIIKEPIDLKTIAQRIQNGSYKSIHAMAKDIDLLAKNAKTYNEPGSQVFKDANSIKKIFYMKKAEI
T15 sequence (P21675 1519-1628 limits assumed): as the sequence (Q8IZX4 1517-1626 limits assumed) above, with M46V, V51M, I102V, I107L counted along it
T3 sequence (P51532 1453-1564 limits assumed): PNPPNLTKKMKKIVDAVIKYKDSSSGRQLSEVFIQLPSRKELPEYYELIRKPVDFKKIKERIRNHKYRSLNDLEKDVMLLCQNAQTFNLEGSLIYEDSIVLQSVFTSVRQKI
T10 sequence (Q15059 306-415 limits assumed): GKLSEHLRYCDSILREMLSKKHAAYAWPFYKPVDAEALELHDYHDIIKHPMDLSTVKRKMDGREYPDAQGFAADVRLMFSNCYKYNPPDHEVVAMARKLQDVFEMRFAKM
T16 sequence (Q9H8M2 136-240 limits assumed): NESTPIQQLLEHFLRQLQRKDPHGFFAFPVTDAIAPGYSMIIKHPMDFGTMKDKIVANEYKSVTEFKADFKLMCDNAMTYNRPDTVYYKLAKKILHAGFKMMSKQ
T6 sequence (Q9NSI6 1313-1418 limits assumed): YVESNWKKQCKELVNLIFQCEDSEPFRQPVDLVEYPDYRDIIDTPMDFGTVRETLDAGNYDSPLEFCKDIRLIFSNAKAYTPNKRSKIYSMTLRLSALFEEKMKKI
T30 sequence (Q9ULI0 951-1066 limits assumed): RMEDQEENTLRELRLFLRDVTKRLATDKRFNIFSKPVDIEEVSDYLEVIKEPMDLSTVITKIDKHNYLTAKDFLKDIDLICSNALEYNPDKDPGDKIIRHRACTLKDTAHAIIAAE
T19 sequence (O15164 899-1004 limits assumed): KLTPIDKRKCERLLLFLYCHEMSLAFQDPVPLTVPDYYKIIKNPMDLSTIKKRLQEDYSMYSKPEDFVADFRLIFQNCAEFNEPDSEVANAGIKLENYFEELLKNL
T17 sequence (P55201 628-732 limits assumed): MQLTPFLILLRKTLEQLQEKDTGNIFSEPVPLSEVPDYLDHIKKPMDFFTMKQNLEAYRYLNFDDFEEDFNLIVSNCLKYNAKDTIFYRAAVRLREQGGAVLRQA

COc1cncc(-c2cc(Nc3cccc(F)c3)nc([C@@H]3CC[C@H](C)N(C(C)=O)C3)n2)c1 [Compound 00004]
< 0.2 µM: EC50 (OPM-2)
> 10 µM: Kd (BRDT(1)) | Kd (CECR2) | Kd (SMARCA4) | Kd (ATAD2A) | Kd (BRPF3) | Kd (WDR9(2)) | Kd (BRD3(1)) | Kd (PCAF) | Kd (TRIM24(PHD, Bromo.)) | Kd (BRD3(2)) | Kd (BRD8(1)) | Kd (PBRM1(2)) | Kd (SMARCA2) | Kd (BRD1) | Kd (TAF1(2)) | Kd (BRD9) | Kd (BRPF1) | Kd (BRD8(2)) | Kd (TRIM24(Bromo.)) | Kd (TAF1L(2)) | Kd (BRDT(2)) | Kd (BRDT(1, 2)) | Kd (BRD3(1, 2)) | Kd (BRD7) | Kd (FALZ) | Kd (PBRM1(5)) | Kd (BAZ2A) | Kd (BAZ2B) | Kd (GCN5L2) | Kd (ATAD2B)
